Results on 15 compounds are retold here after PubChem BioAssay (NCI).

What all share (assay): NCI anticancer screen, dose series, 48 h
Experiment [1] has as its system UACC-62 melanoma.
For experiment [2], the system named is SK-MEL-2 melanoma.
Experiment [3] relates to HCT-15 colon.
For experiment [4], the system named is SF-268 CNS.
For experiment [5], the system named is SK-OV-3 ovarian.
The test system of experiment [6] is A498 renal.
Experiment [7] relates to M19-MEL melanoma.
Experiment [8] has as its system HOP-18 NSCLC.
The test system of experiment [9] is MDA-MB-231 breast.
Experiment [10] relates to MCF7 breast.

Where “and” joins values, the source holds several entries; their conditions need not be identical. Identical values can stand only once.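 Step 1: Grow cells in 96-well plates. Step 2: Expose to compound for 48 hours at 5 concentrations. Step 3: Interpolate endpoints linearly; if unreached, use highest concentration. Here, GI50 denotes the concentration required for 50% inhibition of growth. TGI marks complete inhibition of growth.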

Take `Cc1ccc(S(=O)(=O)N(/N=C(\N)Oc2ccc(Cl)cc2)C(=N)Oc2ccc(Cl)cc2)cc1`: the TGI in experiment [1], in experiment [2], in experiment [3], in [4], in [5] and in experiment [6] was above 100 µM in each case. For the same compound, the TGI in experiment [7] and in experiment [8] was above 100 µM each time.

Turning to `O=C1C2c3[nH]c4ccccc4c3[C@@H]3CCCCCCCCCCC3C2C(=O)N1c1ccccc1` (stereo partly specified), the TGI was 59.2 µM in [1]; above 100 µM in [3]; 48.1 µM in experiment [4]; 23 µM in [5]; 57.4 µM in experiment [7]; 99.6 µM in experiment [8].

In the case of `COc1ccc(/C=C2\Cc3ccccc3C2=O)cc1OC`, the TGI in experiment [1], in experiment [2], in experiment [3], in experiment [4], in experiment [5] and in experiment [6] was above 100 µM each time. In experiment [7], the TGI is above 100 µM.

On to `CC(C)[C@@H]1C=C(c2ccccc2)c2ccccc2C1C(C#N)(C#N)C(C)C` (stereo partly specified), for which the TGI in experiment [1], in [2], in [3], in experiment [4], in experiment [5] and in experiment [6] was above 100 µM throughout. Also, the TGI in [7] and in [8] was above 100 µM throughout.

Consider `N/C(=N\NS(=O)(=O)c1ccccc1)Oc1ccc(Cl)cc1`, for which the TGI in experiment [1], in experiment [2], in [3], in [4], in experiment [5] and in experiment [6] was above 100 µM throughout. The TGI in experiment [7] and in experiment [8] was above 100 µM throughout.

In the case of `COc1ccc2cccc(C(=O)c3ccc(C)c4c3CCC4)c2c1`, the TGI in [1] was 56.5 µM; in experiment [2] it was 98.2 µM; in [3], 53.3 µM; in [4] it was above 100 µM; in experiment [5], above 100 µM; in experiment [6] it was 83.7 µM. For the same compound, the TGI in experiment [7] and in experiment [8] was above 100 µM in each case.

`Cn1c2c([N+](=O)[O-])[se]nc2c(=O)n1-c1ccc([N+](=O)[O-])cc1`: the TGI was determined as 3.25 µM in experiment [1]; 11.2 µM in [2]; 2.73 µM in [3]; 4.77 µM in experiment [4]; 6.1 µM in experiment [5]; 23.7 µM in [6]. Further, the TGI in [8] turned out to be 5.17 µM.

For `CCCCCCCCCCCC(=O)OCC1OC(n2cc(F)c(=O)[nH]c2=O)C(NC(=O)OCc2ccccc2)C(O)C1O` (stereo unspecified), the TGI is 38.6 µM in [1]; 42.5 µM in [2]; 43.5 µM in experiment [3]; above 100 µM in [4]; above 100 µM in experiment [5]; 51.4 µM in [6]. In [7], this compound returned a TGI of 37.2 µM.

For `C/C1=C\[C@H](C)C[C@H](C)OC(=O)C[C@H](c2ccc(O)cc2)NC(=O)[C@@H](Cc2c(Br)[nH]c3ccccc23)N(C)C(=O)[C@H](C)NC(=O)[C@@H](C)C1`, the GI50 in [1] is 0.0414 µM; in experiment [2], 0.0999 µM and 0.0207 µM; in experiment [3] it was 0.488 µM; in experiment [4] it was 0.0352 µM; in experiment [5], 0.0267 µM; in experiment [6] it was 0.0703 µM. Further, the results for the GI50 in experiment [7] and in experiment [10] were 0.0414 µM and 0.208 µM, respectively. The TGI is 0.9 µM and 1.44 µM in experiment [1]; 0.0741 µM in experiment [9]; 0.251 µM and 0.0476 µM in experiment [2]; 6.01 µM in experiment [3]; 0.443 µM and 0.166 µM in [4]; 0.579 µM and 0.0749 µM in [5]. In addition, the TGI is 0.137 µM and 0.5 µM in experiment [6]; 2.02 µM in [7]; above 100 µM in experiment [10].

Regarding `COC(=O)C[CH](C(=O)OC)[Ge]([CH3])([CH3])[S]c1ccccc1` (stereo unspecified), the GI50 in experiment [1] is 15.8 µM; in experiment [2], 16.2 µM; in experiment [3], 13.2 µM; in [4], 18.7 µM; in experiment [5], 25.8 µM; in [6], 19.7 µM. Also, the GI50 was 16.9 µM in experiment [7] and above 100 µM in experiment [8]. Moreover, the TGI in [1] was 36.2 µM; in experiment [2], above 100 µM; in [3], 27.6 µM; in experiment [4] it was 64.1 µM; in [5], 67 µM; in [6], 60.9 µM. The TGI in experiment [7] is 54.7 µM; in [8], above 100 µM.

Turning to `COC(=O)C(=O)C1(CCC(C)=O)c2ccccc2-c2ccccc21`, the TGI in [1], in experiment [2], in experiment [3], in experiment [4], in experiment [5] and in experiment [6] was above 100 µM throughout. Further, the TGI in experiment [7] and in [8] was above 100 µM each time.

In the case of `Cc1cccc(NC(=O)C(=O)C2C(=O)NC(=O)NC2=O)c1C`, the TGI in experiment [1], in experiment [2], in experiment [3], in [4], in [5] and in experiment [6] was above 100 µM in each case. Moreover, the TGI in experiment [7] and in experiment [8] was above 100 µM throughout.

Regarding `Nc1nc2c(ncn2C2OC(CO)C(O)C2N)c(=O)[nH]1` (stereo unspecified), the TGI in experiment [1], in experiment [2], in [3], in [4], in experiment [5] and in experiment [6] was above 100 µM in each case. Besides, the TGI in [7] is above 100 µM.

With `Cc1cc(C)cc(-n2c3nc(=O)n(C)c(=O)c-3nc3ccccc32)c1`, the TGI is 31.5 µM in experiment [1]; 63.5 µM in [2]; 73 µM in experiment [3]; above 100 µM in [4]; above 100 µM in [5]; above 100 µM in [6]. The TGI was 18.5 µM in experiment [7] and above 100 µM in [8].

As to `CC1(O)C=CC2CCC1C2O` (stereo unspecified), the TGI in experiment [1] is above 100 µM; in experiment [2], above 100 µM; in experiment [3], above 100 µM; in experiment [4], 93.7 µM; in experiment [5], above 100 µM; in experiment [6], above 100 µM. In addition, the TGI in experiment [7] and in experiment [8] was above 100 µM throughout.
